Measured values from US20080221104A1, “SOLUBLE EPOXIDE HYDROLASE INHIBITORS FOR THE TREATMENT OF RHEUMATOID ARTHRITIS” (Arete Therapeutics, Inc., priority 2006, published 2008).
pIC50: −log10 of the molar value.

What was measured:
[1] = biological target: T1, sEH (Homo sapiens, UniProt P34913); assay: sEH inhibition, fluorescent CMNPC substrate assay (IC50 determination); type: biochemical; settings: for inhibition at 0.05 µM: tested at 50 nM
T1 sequence (P34913 1-555): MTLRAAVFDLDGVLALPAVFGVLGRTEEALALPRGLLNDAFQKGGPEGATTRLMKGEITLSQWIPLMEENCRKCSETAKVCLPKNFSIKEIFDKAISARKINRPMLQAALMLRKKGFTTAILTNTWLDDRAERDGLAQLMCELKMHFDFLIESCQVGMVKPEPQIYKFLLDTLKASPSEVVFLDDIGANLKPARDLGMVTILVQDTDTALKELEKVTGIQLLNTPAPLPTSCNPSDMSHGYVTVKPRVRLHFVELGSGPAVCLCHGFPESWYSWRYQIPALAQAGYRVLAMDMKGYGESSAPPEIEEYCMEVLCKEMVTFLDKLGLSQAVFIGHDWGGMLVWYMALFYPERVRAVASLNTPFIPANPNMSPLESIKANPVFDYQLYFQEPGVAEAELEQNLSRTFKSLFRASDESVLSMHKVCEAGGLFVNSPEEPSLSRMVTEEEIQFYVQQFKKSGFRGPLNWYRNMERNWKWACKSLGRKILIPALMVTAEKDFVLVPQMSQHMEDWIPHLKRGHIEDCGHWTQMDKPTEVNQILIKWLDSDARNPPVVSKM
Experimental: The IC50s for each inhibitor were determined according to the following procedure:
The substrate for the reaction was:
Therefore, well A2 would refer to a well in the first row and second column of the plate.
In a black 96 well plate, all the wells are filled with 150 μL of buffer A (Buffer A: Bis/Tris HCl, 25 mM, pH 7.0 plus 0.1 mg/mL BSA). DMSO (2 microliters) was added in well A2 and A3, and then was added 2 μL of inhibitor solution in A1 and A4 through A12. […] The plate was incubated for 5 minutes in the plate reader at 30° C. During incubation, the working solution of substrate was prepared by mixing 3.68 mL of buffer A with 266 μL of 0.5 mM substrate solution. At t=0, 30 μL of working substrate solution was added and readings were started ([S]final: 5 μM). […] The velocities were used to analyze and calculate the IC50s.

[2] = test system: IL-6; assay: LPS-induced cytokine production in mice (plasma IL-6); type: in vivo, mice (C57-B6)
Excerpt: Mouse Model of Inflammation Supporting Arthritis Model: Study of effect of Treatments on LPS-Induced Cytokine Production Mice (C57-B6 mice, ˜7-8 wks, male, Charles River Labs, 22-28 g) were quarantined and examined daily during 72 hr quarantine period. Any sign of clinical distress, disease, or injury were noted on a daily basis. […] Accepted mice were transferred to routine maintenance and housed at 5 per cage. Each mouse was identified by an ear tag. The vehicle or pharmaceutically acceptable carrier for test compounds was 20% hydroxypropyl-beta-cyclodextrin for subcutaneous and interperoneal routes (Groups 6-9). For Groups 1-5, the “Vehicle” as used in this study is 0.1% Tween 80 and 1% carboxymethylcellulose (CMC). The 0.1% Tween 80 and 1% carboxymethylcellulose (CMC) was the Vehicle used in the mice in Groups 1 and 2. The compounds were administered with pre-formulated material at a dose of 0.2 mL for 25 g mouse (8.0 mL per kg body weight). […] At the initiation of the study (T=0) animals were weighed and administered with test material or Vehicle. Five 5 mice per treatment per time point group were completed. At the first time point (T=24 hours) the animals were administered with test material or Vehicle again as above. [0.2 mL for 25 g mouse (8.0 mL per kg body weight)] [table] At the time point T=25 hour, animals were administered 2 mL/kg of an LPS solution (5 mg/mL, lipopolysaccharide from Escherichia coli 0111:B4; dissolved in sterile PBS) or vehicle by intraperitoneal route. At this time point, Group 1 mice received Vehicle only as the non-LPS control and Groups 2 through 9 mice received LPS and Vehicle (Group 2) or Test Materials. At the time point T=30 hour, mice in Groups 1 through 9 were anesthetized and exsanguinated into EDTA-treated microtainer tubes. […] The plasma samples was stored at −20° C. until testing. Plasma IL-6 was measured by Luminex cytokine multiplex measurements using beads supplied by Linco.

[3] = test system: DBA/1 mice; assay: Collagen induced rheumatoid arthritis (RA) mouse model; type: in vivo, mice (DBA/1)
Experimental: Mice were immunized with collagen as follows. Collagen (Bovine Type II, 0.05M in acetic acid) was emulsified with CFA (Complete Freund's Adjuvant) by mixing one volume of CFA with an equal amount of the collagen solution. Mixing was continued until a stable, stiff emulsion resulted. To ascertain the desired stability of the emulsion, 1 drop of emulsion was added into a water-filled beaker. The emulsion was considered stable if it remained in the water as a solid. For the collagen IP boost on day 21, the Bovine Type II collagen (Condrex, Seattle, Wash.) was thawed at 4° C. overnight and then mixed 1:1 with the PBS supplied. 200 μL was injected IP into each mouse. Four groups of 10 mice (40 total), aged 7-8 weeks were acclimated a minimum of 5 days prior to start of the study. Animals were housed 5 per cage in microisolators in a 12:12 light dark cycle (all work was done in a BioBubble Hood™). Standard maintenance mouse chow diet (Harlan Teklad 8640) was supplied. Water and food were given ad libitum. High CIA-susceptible DBA/1 mice were utilized which generally develop arthritis 3-5 weeks after immunization with Bovine type TI collagen. Fully developed arthritis, including red and swollen paws, was to be observed 3-5 days after the onset. […] Time of dosing was approximately the same each day following through the end of the study. The mice groups were fed as follows through the duration of the experiment: Group 1) Chow (Referred to as “Vehicle” in FIG. 1). Group 2) Chow (Positive Control-Dexamethasone (DEXA))-Dosed as appropriate. […] The dosing solutions were made on a twice weekly basis and stored at 4° C. between dosing. Measurements were taken twice weekly from boost and included: body weight measurement and Arthritic Score on a scale of 0 to 4. Arthritic score 0-4 (0=normal; 1=1-2 digit swollen and mildly red; 2=redness and swelling in mid-foot or ankle; 3=>3 paws and ankle joints swollen and very red); 4=all joints swollen and animal is not using the paw. At onset of arthritis paw measurements were taken with calipers. A baseline of caliper measurements was taken when all visual assessments were zero. Measurements were taken with an electronic caliper that entered measurements directly to an excel spreadsheet. The study was terminated on Day 42 from initial collagen injection. Cardiac blood was taken from each mouse and plasma prepared in EDTA within 15 min of collection. Plasma was frozen at −20° C. for future analysis of cytokines and eicosatrienoic acids. All left hind paws were removed and stored in formalin for future histology.

[4] = Pharmacokinetic study in mice; type: in vivo; settings: mouse plasma; for MRT: read-out: mean resident time (MRT)
Experimental: All animals were weighed prior to dose administration. […].
Blood (˜0.5 mL) was collected by cardiac puncture at sacrifice and transferred into vacutainer tubes containing sodium heparin at the time points outlined (See FIG. 3). After collection, the blood samples were centrifuged at approximately 1000×g at 2-8° C. for approximately 15 minutes. Each plasma specimen was collected, aliquoted into 2 microcentrifuge tubes, and stored at about −20° C. until analysis by LC/MS (liquid chromatography/mass spectrometry).
The quantitation method for pharmacokinetics is summarized as follows:
To prepare calibration standards for quantitation, the working standard was diluted 1 in 100 into rat plasma to 5 μg/mL (5 μL+495 μL), then diluted further with the same medium by 3-fold serial dilution. A total of seven dilutions were performed yielding eight calibration standards ranging from 2.29 to 5000 ng/mL. Calibration standards 3, 5 and 7 were used as the low, mid and high QC samples, respectively.
Calibration standards, QC samples and study samples were prepared for HPLC injection by precipitating plasma (25 μL) with 3× volumes (75 μL) of ice cold Internal Standard Solution. Following centrifugation at 6100 g for 30 minutes, 40 μL of each supernatant was transferred to a deep-well microplate and diluted with 200 μL of 0.2% formic acid in water.

[5] = 50 mg/kg PO once a day (QD), Day 20 to Day 27
[6] = 50 mg/kg PO twice a day (BID), Day 28 to Day 42

In the case of O=C(Nc1ccc(C(F)(F)F)cc1)Nc1cccc(C(=O)N2CCOCC2)c1 [Compound 1, 1-[3-(morpholine-4-carbonyl)-phenyl]-3-(4-trifluoromethyl-phenyl)-urea], the pIC50 ([1]; read-out: IC50 against sEH) was 8.05, the inhibition at 0.05 µM [1] was 82% and the “inhibition of IL-6 release in response to LPS” value (shortened to “inhibition of IL-6 release”) ([2]; administered SC, 50 mg/kg) was 94%. For the same compound, the “inhibition of IL-6 release” value ([2]; given orally, 50 mg/kg) was 55%, the “arthritis score vs Vehicle” value [3, 5] was “no significant difference from Vehicle” and the “arthritis score vs Vehicle” value [3, 6] was “significantly decreased the arthritic score”. The Cmax [4] was 9920 ng/mL, the “area under the curve (AUC), fold higher than COMPOUND #2” value [4] was “over 20 fold” and the MRT [4] was 5.6 h.

With CC(=O)N1CCC(NC(=O)NC23CC4CC(CC(C4)C2)C3)CC1 [Compound 2, 1-(1-acetylpiperidn-4-yl)-3-(adamant-1-yl) urea] the “inhibition of IL-6 release” value ([2]; administered SC, 50 mg/kg) was 51%, the “inhibition of IL-6 release” value ([2]; given orally, 50 mg/kg) was 51% and the “arthritis score vs Vehicle” value [3, 5] was “not significantly different from Vehicle treated animals”. For the same compound, the “arthritis score vs Vehicle” value [3, 6] was “not significantly different from Vehicle treated animals”, the Cmax [4] was 6490 ng/mL and the MRT [4] was 1.3 h.

With CS(=O)(=O)N1CCC(NC(=O)NC23CC4CC(CC(C4)C2)C3)CC1 [Compound 5, 1-[1-(methylsulfonyl)piperidin-4-yl]-3-(adamant-1-yl) urea] the inhibition at 0.05 µM [1] was 94%.

With Fc1ccc(-c2nc3n(c2-c2ccncc2)CCS3)cc1 [SKF86002, reference compound] the “inhibition of IL-6 release” value ([2]; PO, 100 mg/kg, relative to the vehicle control) was 66%.
